Earlier results in patent publication US20070254015A1, “Sanitizing surfaces” (Searete LLC, a limited liability corporation of the State …, priority 2006, published 2007).
Read-outs that look alike come from different tables or passages of the source.

Tests used:
[1] = system: Hepatitis B Virus
[2] = system: Human Immunodeficiency Virus (HIV-1)
[3] = Table I, liquid sanitizing agents
[4] = Table II, liquid sanitizing agents for gloves

Molecule | Known Minimum Concentration by Volume for Immediately Sterilizing Hepatitis B Virus [1, 3] [%] | Known Minimum Concentration by Volume for Immediately Sterilizing Hepatitis B Virus [1, 4] [%] | Known Minimum Concentration by Volume for Immediately Sterilizing Human Immunodeficiency Virus (HIV-1) [2, 3] [%] | Known Minimum Concentration by Volume for Immediately Sterilizing Human Immunodeficiency Virus (HIV-1) [2, 4] [%]
CC(C)O [Isopropyl Alcohol] | 70 | 70 | 30 | 30
ethylphenyl-polyethylene glycol [NP-40] | – | – | 1 | 1
OO [Hydrogen Peroxide] | – | – | 0.3 | 0.3
CCO [Ethyl Alcohol] | 80 | 80 | 50 | 50
